# Measured values reported in patent EP0326418A1, “GRF analogs” (THE UPJOHN COMPANY, priority 1988, dated 1989).
# Where two headings read alike, the source gives them in different places. Where a SMILES comes first, the peptide text is derived from it. [ ]: non-standard residue; d: D form. The star is where a group is joined. Desaminotyrosyl = O=C(CCc1ccc(O)cc1)*; Cya = N[C@@H](CS(=O)(=O)O)C(=O)O; X1 = O=C(Cc1ccc(O)cc1)*
# Assays:
# [1] = test system: bovine anterior pituitary cell culture; assay type: cell-based
# [2] = proteolytic stability in bovine plasma (HPLC, modified Frohman method); settings: bovine plasma
# [3] = another assay, potency as a fraction of bGRF(1-44)NH₂
Compound,the potency of bGRF(1-44)NH₂ [1],remaining at 1 h [2] [%],"the potency of bGRF(1-44)NH₂ [1, 3]","potency (in words) ([1]; contemplated, compound not tested)"
"CC[C@H](C)[C@H](NC(=O)[C@H](C)NC(=O)[C@H](CS(=O)(=O)O)NC(=O)[C@H](C)NC(=O)[C@@H](N)Cc1ccc(O)cc1)C(=O)N[C@@H](Cc1ccccc1)C(=O)N[C@H](C(=O)N[C@@H](CC(N)=O)C(=O)N[C@@H](CO)C(=O)N[C@@H](Cc1ccc(O)cc1)C(=O)N[C@@H](CCCNC(=N)N)C(=O)N[C@@H](CCCCN)C(=O)N[C@H](C(=O)N[C@@H](CC(C)C)C(=O)NCC(=O)N[C@@H](CCC(N)=O)C(=O)N[C@@H](CC(C)C)C(=O)N[C@@H](CO)C(=O)N[C@@H](C)C(=O)N[C@@H](CCCNC(=N)N)C(=O)N[C@@H](CCCCN)C(=O)N[C@@H](CC(C)C)C(=O)N[C@@H](CC(C)C)C(=O)N[C@@H](CCC(N)=O)C(=O)N[C@@H](CS(=O)(=O)O)C(=O)N[C@H](C(=O)N[C@@H](CC(C)C)C(=O)N[C@@H](CC(N)=O)C(=O)N[C@@H](CCCNC(=N)N)C(=O)N[C@@H](CCC(N)=O)C(=O)N[C@@H](CCC(N)=O)C(=O)NCC(N)=O)[C@@H](C)CC)C(C)C)[C@@H](C)O [Compound 2, Cya^3,25, Leu²⁷bGRF(1-32)NH₂] (H-YA[Cya]AIFTNSYRKVLGQLSARKLLQ[Cya]ILNRQQG-NH2)",0.11,,,
"CC[C@H](C)[C@H](NC(=O)[C@H](C)NC(=O)[C@H](CS(=O)(=O)O)NC(=O)[C@H](C)NC(=O)CCc1ccc(O)cc1)C(=O)N[C@@H](Cc1ccccc1)C(=O)N[C@H](C(=O)N[C@@H](CC(N)=O)C(=O)N[C@@H](CO)C(=O)N[C@@H](Cc1ccc(O)cc1)C(=O)N[C@@H](CCCNC(=N)N)C(=O)N[C@@H](CCCCN)C(=O)N[C@H](C(=O)N[C@@H](CC(C)C)C(=O)NCC(=O)N[C@@H](CCC(N)=O)C(=O)N[C@@H](CC(C)C)C(=O)N[C@@H](CO)C(=O)N[C@@H](C)C(=O)N[C@@H](CCCNC(=N)N)C(=O)N[C@@H](CCCCN)C(=O)N[C@@H](CC(C)C)C(=O)N[C@@H](CC(C)C)C(=O)N[C@@H](CCC(N)=O)C(=O)N[C@@H](CC(=O)O)C(=O)N[C@H](C(=O)N[C@@H](CC(C)C)C(=O)N[C@@H](CC(N)=O)C(=O)N[C@@H](CCCNC(=N)N)C(=O)N[C@@H](CCC(N)=O)C(=O)N[C@@H](CCC(N)=O)C(=O)NCC(N)=O)[C@@H](C)CC)C(C)C)[C@@H](C)O [Compound 5, Desamino-Tyr¹, Cya³, Leu²⁷-bGRF(1-32)NH₂] (Desaminotyrosyl-A[Cya]AIFTNSYRKVLGQLSARKLLQDILNRQQG-NH2)",1.01,76,,
"CC[C@H](C)[C@H](NC(=O)[C@H](C)NC(=O)[C@H](CS(=O)(=O)O)NC(=O)[C@@H](C)NC(=O)CCc1ccc(O)cc1)C(=O)N[C@@H](Cc1ccccc1)C(=O)N[C@H](C(=O)N[C@@H](CC(N)=O)C(=O)N[C@@H](CO)C(=O)N[C@@H](Cc1ccc(O)cc1)C(=O)N[C@@H](CCCNC(=N)N)C(=O)N[C@@H](CCCCN)C(=O)N[C@H](C(=O)N[C@@H](CC(C)C)C(=O)NCC(=O)N[C@@H](CCC(N)=O)C(=O)N[C@@H](CC(C)C)C(=O)N[C@@H](CO)C(=O)N[C@@H](C)C(=O)N[C@@H](CCCNC(=N)N)C(=O)N[C@@H](CCCCN)C(=O)N[C@@H](CC(C)C)C(=O)N[C@@H](CC(C)C)C(=O)N[C@@H](CCC(N)=O)C(=O)N[C@@H](CC(=O)O)C(=O)N[C@H](C(=O)N[C@@H](CC(C)C)C(=O)N[C@@H](CC(N)=O)C(=O)N[C@@H](CCCNC(=N)N)C(=O)N[C@@H](CCC(N)=O)C(=O)N[C@@H](CCC(N)=O)C(=O)NCC(N)=O)[C@@H](C)CC)C(C)C)[C@@H](C)O [Compound 6, Desamino-Tyr¹, D-Ala²,, Cya³, Leu²⁷-bGRF(1-32)NH₂] (Desaminotyrosyl-[dA][Cya]AIFTNSYRKVLGQLSARKLLQDILNRQQG-NH2)",0.26,51,,
"CC[C@H](C)[C@H](NC(=O)[C@H](C)NC(=O)[C@H](CS(=O)(=O)O)NC(=O)[C@@H](C)NC(=O)CCc1ccc(O)cc1)C(=O)N[C@@H](Cc1ccccc1)C(=O)N[C@H](C(=O)N[C@@H](CC(N)=O)C(=O)N[C@@H](CO)C(=O)N[C@@H](Cc1ccc(O)cc1)C(=O)N[C@@H](CCCNC(=N)N)C(=O)N[C@@H](CCCCN)C(=O)N[C@H](C(=O)N[C@@H](CC(C)C)C(=O)N[C@@H](C)C(=O)N[C@@H](CCC(N)=O)C(=O)N[C@@H](CC(C)C)C(=O)N[C@@H](CO)C(=O)N[C@@H](C)C(=O)N[C@@H](CCCNC(=N)N)C(=O)N[C@@H](CCCCN)C(=O)N[C@@H](CC(C)C)C(=O)N[C@@H](CC(C)C)C(=O)N[C@@H](CCC(N)=O)C(=O)N[C@@H](CC(=O)O)C(=O)N[C@H](C(=O)N[C@@H](CC(C)C)C(=O)N[C@@H](CC(N)=O)C(=O)N[C@@H](CCCNC(=N)N)C(=O)N[C@@H](CCC(N)=O)C(=O)N[C@@H](CCC(N)=O)C(=O)NCC(N)=O)[C@@H](C)CC)C(C)C)[C@@H](C)O [Compound 10, Desamino-Tyr¹, D-Ala², Cya³, Ala¹⁵, Leu²⁷-bGRF(1-32)NH₂] (Desaminotyrosyl-[dA][Cya]AIFTNSYRKVLAQLSARKLLQDILNRQQG-NH2)",1.40,,,
"CC[C@H](C)[C@H](NC(=O)[C@H](C)NC(=O)[C@H](CS(=O)(=O)O)NC(=O)[C@H](C)NC(=O)CCc1ccc(O)cc1)C(=O)N[C@@H](Cc1ccccc1)C(=O)N[C@H](C(=O)N[C@@H](CO)C(=O)N[C@@H](CO)C(=O)N[C@@H](Cc1ccc(O)cc1)C(=O)N[C@@H](CCCNC(=N)N)C(=O)N[C@@H](CCCNC(=N)N)C(=O)N[C@H](C(=O)N[C@@H](CC(C)C)C(=O)N[C@@H](C)C(=O)N[C@@H](CCC(N)=O)C(=O)N[C@@H](CC(C)C)C(=O)N[C@@H](CO)C(=O)N[C@@H](C)C(=O)N[C@@H](CCCNC(=N)N)C(=O)N[C@@H](CCCNC(=N)N)C(=O)N[C@@H](CC(C)C)C(=O)N[C@@H](CC(C)C)C(=O)N[C@@H](CCC(N)=O)C(=O)N[C@@H](CC(=O)O)C(=O)N[C@H](C(=O)N[C@@H](CC(C)C)C(=O)N[C@@H](CO)C(=O)N[C@@H](CCCNC(=N)N)C(=O)N[C@@H](CCC(N)=O)C(=O)N[C@@H](CCC(N)=O)C(=O)NCC(N)=O)[C@@H](C)CC)C(C)C)[C@@H](C)O [Compound 12, DesaminoTyr¹, Cya³, Ser⁸, Arg¹², Ala¹⁵, Leu²⁷, Ser²⁸, bGRF(1-32)NH₂] (Desaminotyrosyl-A[Cya]AIFTSSYRRVLAQLSARRLLQDILSRQQG-NH2)",,67,0.54,
"CC[C@H](C)[C@H](NC(=O)[C@H](C)NC(=O)[C@H](CC(=O)O)NC(=O)[C@H](C)NC(=O)CCc1ccc(O)cc1)C(=O)N[C@@H](Cc1ccccc1)C(=O)N[C@H](C(=O)N[C@@H](CO)C(=O)N[C@@H](CO)C(=O)N[C@@H](Cc1ccc(O)cc1)C(=O)N[C@@H](CCCNC(=N)N)C(=O)N[C@@H](CCCNC(=N)N)C(=O)N[C@H](C(=O)N[C@@H](CC(C)C)C(=O)N[C@@H](C)C(=O)N[C@@H](CCC(N)=O)C(=O)N[C@@H](CC(C)C)C(=O)N[C@@H](CO)C(=O)N[C@@H](C)C(=O)N[C@@H](CCCNC(=N)N)C(=O)N[C@@H](CCCNC(=N)N)C(=O)N[C@@H](CC(C)C)C(=O)N[C@@H](CC(C)C)C(=O)N[C@@H](CCC(N)=O)C(=O)N[C@@H](CS(=O)(=O)O)C(=O)N[C@H](C(=O)N[C@@H](CC(C)C)C(=O)N[C@@H](CO)C(=O)N[C@@H](CCCNC(=N)N)C(=O)N[C@@H](CCC(N)=O)C(=O)N[C@@H](CCC(N)=O)C(=O)NCC(N)=O)[C@@H](C)CC)C(C)C)[C@@H](C)O [Compound 14, DesaminoTyr¹, Ser⁸, Arg¹², Ala¹⁵, Cya²⁵, Leu²⁷, Ser²⁸, bGRF(1-32)NH₂] (Desaminotyrosyl-ADAIFTSSYRRVLAQLSARRLLQ[Cya]ILSRQQG-NH2)",,65,1.21,
"CC[C@H](C)[C@H](NC(=O)[C@H](C)NC(=O)[C@H](CC(=O)O)NC(=O)[C@H](C)NC(=O)Cc1ccc(O)cc1)C(=O)N[C@@H](Cc1ccccc1)C(=O)N[C@H](C(=O)N[C@@H](CO)C(=O)N[C@@H](CO)C(=O)N[C@@H](Cc1ccc(O)cc1)C(=O)N[C@@H](CCCNC(=N)N)C(=O)N[C@@H](CCCNC(=N)N)C(=O)N[C@H](C(=O)N[C@@H](CC(C)C)C(=O)N[C@@H](C)C(=O)N[C@@H](CCC(N)=O)C(=O)N[C@@H](CC(C)C)C(=O)N[C@@H](CO)C(=O)N[C@@H](C)C(=O)N[C@@H](CCCNC(=N)N)C(=O)N[C@@H](CCCNC(=N)N)C(=O)N[C@@H](CC(C)C)C(=O)N[C@@H](CC(C)C)C(=O)N[C@@H](CCC(N)=O)C(=O)N[C@@H](CS(=O)(=O)O)C(=O)N[C@H](C(=O)N[C@@H](CC(C)C)C(=O)N[C@@H](CO)C(=O)N[C@@H](CCCNC(=N)N)C(=O)N[C@@H](CCC(N)=O)C(=O)N[C@@H](CCC(N)=O)C(=O)NCC(N)=O)[C@@H](C)CC)C(C)C)[C@@H](C)O [Compound 15, Desamino PHPG¹, Ser⁸, Arg¹², Ala¹⁵, Cya²⁵, Leu²⁷, Ser²⁸, bGRF(1-32)NH₂] (X1-ADAIFTSSYRRVLAQLSARRLLQ[Cya]ILSRQQG-NH2)",,65,0.97,
"DesaminoTyr¹, Cya³, Ser⁸, Arg¹², Ala¹⁵, Arg²¹, Leu²⁷, Ser²⁸, Hse³³ bGRF(1-33)lactone [Compound 20]",,,,high potency
